# Results from PubChem BioAssay (NCI).
#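 A five-concentration, 48-hour dose response in 96-well plates underlies each endpoint, interpolated linearly between surrounding concentrations. GI50: concentration for 50% inhibition of growth. The concentration for full growth arrest is given as TGI.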
# Columns and labels:
# Experiment in all cases: growth of human tumour cells (NCI), 48 h
# UO-31 renal = test system: UO-31 renal
# U251 CNS = test system: U251 CNS
# HCT-116 colon = test system: HCT-116 colon
# OVCAR-4 ovarian = test system: OVCAR-4 ovarian
# SK-MEL-28 melanoma = test system: SK-MEL-28 melanoma
# K-562 leukemia = test system: K-562 leukemia
# NCI-H23 lung = test system: NCI-H23 lung
# HS 578T breast = test system: HS 578T breast
# HCC-2998 colon = test system: HCC-2998 colon
# DMS 273 small cell lung = test system: DMS 273 small cell lung
# SF-268 CNS = test system: SF-268 CNS
Structure (SMILES),TGI (UO-31 renal) [µM],TGI (U251 CNS) [µM],TGI (HCT-116 colon) [µM],TGI (OVCAR-4 ovarian) [µM],TGI (SK-MEL-28 melanoma) [µM],TGI (K-562 leukemia) [µM],TGI (NCI-H23 lung) [µM],TGI (HS 578T breast) [µM],TGI (HCC-2998 colon) [µM],TGI (DMS 273 small cell lung) [µM],TGI (SF-268 CNS) [µM],GI50 (UO-31 renal) [nM],GI50 (HCC-2998 colon) [nM],GI50 (HCT-116 colon) [nM],GI50 (OVCAR-4 ovarian) [nM],GI50 (SK-MEL-28 melanoma) [nM],GI50 (K-562 leukemia) [nM],GI50 (SF-268 CNS) [nM],GI50 (NCI-H23 lung) [nM],GI50 (HS 578T breast) [nM]
CC(C)(C)[Si](C)(C)OCC1OC(n2cnc3c(N)ncnc32)CC1O (configuration not stated),> 100,> 100,> 100,> 100,> 100,> 100,> 100,> 100,,,,,,,,,,,,
c1coc(CNc2ncnc3[nH]ncc23)c1,> 100,> 100,> 100,> 100,> 100,> 100,> 100,,> 100,> 100,> 100,,,,,,,,,
O=C1NC2=C(CCCC/C2=N\O)C12CCCCC2,> 100,> 100,> 100,> 100,> 100,> 100,> 100,,> 100,,> 100,,,,,,,,,
Brc1ccc(C2CC(c3cccc4ccccc34)=Nc3ccccc3S2)cc1 (configuration not stated),> 100,> 100,> 100,> 100,> 100,> 100,> 100,,> 100,> 100,> 100,,,,,,,,,
O=C1CSC(=S)N1,> 100,> 100,> 100,,> 100,> 100,> 100,> 100,> 100,,> 100,,,,,,,,,
CC(=O)c1ccc2c(c1)c1c(C)c3c[n+](C)ccc3c(C)c1n2C,> 23.7,11.9,18.8,54.4,32.3,> 72.2,,,> 100,18.8,3.52,,,,,,,,,
CCOC(=O)NC(Nc1ncccn1)(C(=O)OCC)C(F)(F)F (configuration not stated),> 100,> 100,> 100,> 100,> 100,> 100,> 100,> 100,> 100,,> 100,,,,,,,,,
N#CN=[N+]([O-])c1ccc(C(=O)O)cc1,30.3,33,,35.8,33.4,38.4,33.7,61.3,> 100,,35.5,,,,,,,,,
Cc1cc(C)n(-c2nsc3ccccc23)n1,> 100,> 100,> 100,> 100,> 100,> 100,> 100,,> 100,> 100,> 100,,,,,,,,,
Cc1ccc2c(c1)C(=O)N(N(C)C)CC(=O)N2,> 100,> 100,> 100,> 100,> 100,> 100,> 100,,> 100,> 100,> 100,,,,,,,,,
Fc1ccc(C2CC(c3cccc(Nc4ccncc4)c3)=NN2c2ccc(Cl)cc2)cc1 (configuration not stated),2.76,,3.39,3.05,3.24,4.86,3.62,3.63,2.96,,3.45,1420,1550,1730,1640,1720,1860,1750,1840,1740
CSc1nc(NC2OCC(O)C(O)C2O)c(N)c(=O)[nH]1 (configuration not stated),> 100,> 100,> 100,> 100,> 100,> 100,> 100,,> 100,> 100,> 100,,,,,,,,,
Cc1cc2c(cc1C)OC(=O)CC2,> 100,> 100,> 100,> 100,> 100,> 100,> 100,> 100,> 100,,> 100,,,,,,,,,
